From PubChem BioAssay (NCI)
“And” between values parts separate entries of the source, which are not always exact repeats. Equal entries are not always repeated.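 48-hour exposure; five concentrations; linearly interpolated endpoints. GI50: concentration for 50% inhibition of growth. Definition used: TGI = concentration required for complete inhibition of growth.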

Tests used:
Test in all cases: inhibition of tumour cell growth, NCI panel, 48 h
[1] = tested on: MDA-MB-468 breast
[2] = tested on: MDA-MB-435
[3] = tested on: SR leukemia
[4] = tested on: UACC-257 melanoma
[5] = tested on: SNB-75 CNS
[6] = tested on: TK-10 renal
[7] = tested on: RPMI-8226 leukemia
[8] = tested on: HCT-15 colon
[9] = tested on: KM12 colon
[10] = tested on: 786-0 renal
[11] = tested on: SF-539 CNS
[12] = tested on: NCI-H522 lung
[13] = tested on: MALME-3M melanoma
[14] = tested on: SK-OV-3 ovarian
[15] = tested on: LOX IMVI melanoma
[16] = tested on: SF-295 CNS
[17] = tested on: RXF 393 renal
[18] = tested on: A498 renal
[19] = tested on: SN12C renal
[20] = tested on: CCRF-CEM leukemia
[21] = tested on: SF-268 CNS
[22] = tested on: DU-145 prostate
[23] = tested on: EKVX NSCLC
[24] = tested on: OVCAR-3 ovarian
[25] = tested on: MCF7 breast
[26] = tested on: HCC-2998 colon
[27] = tested on: T-47D breast
[28] = tested on: CAKI-1 renal
[29] = tested on: OVCAR-5 ovarian
[30] = tested on: SK-MEL-2 melanoma
[31] = tested on: UACC-62 melanoma
[32] = tested on: HS 578T breast
[33] = tested on: SK-MEL-5 melanoma

## COc1cccc(N2CCN(c3ncnc4c3[nH]c3ccc(F)cc34)C[C@@H]2C)c1
[1]
  GI50: 1590 nM
  TGI: 5.31 µM

## C=CC[Se]C(=O)c1ccccc1OC(C)=O
[1]
  GI50: 1780 nM
  TGI: 3.75 µM

## O=C(c1ccc(F)c(F)c1Nc1ccc(I)cc1F)N1CC(O)([C@H]2CCCCN2)C1
[1]
  GI50: 4520 nM
  TGI: 10.7 µM

## NC(=O)Cc1ccccc1Oc1nccc(-c2c(-c3ccc(F)cc3)ncn2C2CCNCC2)n1
[1]
  GI50: 8200 nM
  TGI: > 25 µM

## O=C(O[C@H]1CN[C@H](C#Cc2cc3ncnc(Nc4ccc(Cc5ccccc5)cc4)c3s2)C1)N1CCOCC1
[1]
  GI50: 1270 nM
  TGI: 6.37 µM

## CCS(=O)(=O)c1ccc(OC)c(Nc2ncc(-c3cccc(-c4ccccc4F)c3)o2)c1
[1]
  GI50: 4950 nM
  TGI: > 25 µM

## O=C(Nc1cccnc1)c1cccs1
[1]
  GI50: 603 nM
  TGI: > 100 µM

## O=S(=O)(c1ccc2c(c1)C(=NO)c1cc(S(=O)(=O)N3CCCCC3)ccc1-2)N1CCCCC1
[1]
  GI50: 237 nM and 137 nM
  TGI: 0.608 µM and 0.277 µM

## COC(=O)C1=C(C(=O)Nc2cccnc2)C2OC1(C(Cc1ccccc1)Oc1ccccc1)C1OC21 (stereo not given)
[1]
  GI50: 1720 nM
  TGI: 4.25 µM

## Cc1ccccc1NC(=O)N/C(N)=N/c1nc2ccccc2s1
[1]
  GI50: 233 nM
  TGI: > 100 µM

## COc1cccc(C2=NN(C(C)=O)C(c3cc(OC)c(OC)c(OC)c3)C2)c1 (stereo not given)
[1]
  GI50: 1010 nM
  TGI: > 30.9 µM

## COc1cc(C2=Nc3c/c(=C\c4c(O)[nH]c5ccc(Cl)cc45)ccc3=N2)cc(OC)c1OC
[1]
  GI50: 1970 nM
  TGI: 4.41 µM

## CN(C)c1cc2c(cc1Sc1nc3c(N)nccc3n1CCNCC(C)(C)C)OCO2
[1]
  GI50: 268 nM
  TGI: 0.888 µM

## O=C1OCC2=C1C(c1ccccc1)c1cc3c(cc1N2CCO)CCC3 (stereo not given)
[1]
  GI50: 55.9 nM
  TGI: 0.156 µM

## O=Cc1ncc(-c2ccc(C(F)(F)F)cc2)c(NC2CCCCCC2)n1
[1]
  GI50: > 10000 nM
  TGI: > 10 µM

## CN(C)c1cc2c(Nc3ccc4nc(Cc5ccccc5)[nH]c4c3)ncnc2cn1
[1]
  GI50: > 9600 nM
  TGI: > 25 µM

## Nc1cccc(-c2nc3sccn3c2-c2ccnc(NCCCNS(=O)(=O)c3ccc(C(F)(F)F)cc3)n2)c1
[1]
  GI50: 2440 nM
  TGI: 33.8 µM

## Clc1ccc(-c2nc(-c3c[nH]c4ncccc34)cs2)cc1
[1]
  GI50: > 100000 nM
  TGI: > 100 µM

## Cc1oncc1C(=O)Nc1ccc(C(F)(F)F)cc1
[1]
  GI50: 37100 nM
  TGI: > 100 µM

## O=C(/C=C\c1cccc([N+](=O)[O-])c1)c1ccccc1
[1]
  GI50: 1650 nM
  TGI: 9.51 µM

## C=C1C(=O)O[C@H]2[C@H]1CC/C(COC(=O)NCc1c[nH]c3ccc(OC)cc13)=C\CC[C@@]1(C)O[C@@H]21
[1]
  GI50: 1320 nM
  TGI: 4.62 µM

## C[C@H](Nc1ccc(C#N)n(C)c1=O)c1cc2cc(Cl)ccc2[nH]c1=O
[1]
  GI50: 21600 nM
  TGI: 84 µM

## CCN(CC)CCC(CNc1c2ccc([N+](=O)[O-])cc2nc2cc(OC)c(OC)cc12)c1ccccc1 (stereo not given)
[1]
  GI50: 324 nM and 229 nM
  TGI: 1.63 µM and 1.22 µM

## Cn1cc(-c2cc(N)n3nc(-c4c[nH]c5ccc(Br)cc45)cc3n2)c2cccnc21
[2]
  GI50: 1700 nM
  TGI: 3.16 µM
[3]
  GI50: 2720 nM
  TGI: > 100 µM
[4]
  GI50: 1750 nM
  TGI: 3.48 µM
[5]
  GI50: 1290 nM
  TGI: 2570 nM
[6]
  GI50: 2110 nM
  TGI: 7.4 µM
[7]
  GI50: 4.04 µM
  TGI: > 100 µM
[8]
  GI50: 2710 nM
  TGI: 8.28 µM
[9]
  GI50: 1780 nM
  TGI: 3.35 µM
[10]
  GI50: 1570 nM
  TGI: 3000 nM
[11]
  GI50: 1580 nM
  TGI: 2970 nM
[12]
  GI50: 1850 nM
  TGI: 3.54 µM
[1]
  GI50: 1590 nM
  TGI: 3.24 µM
[13]
  GI50: 1520 nM
  TGI: 2910 nM
[14]
  GI50: 22.8 µM
  TGI: 44.4 µM
[15]
  GI50: 1820 nM
  TGI: 3.21 µM
[16]
  GI50: 2200 nM
  TGI: 5.09 µM
[17]
  GI50: 1650 nM
  TGI: 3.24 µM
[18]
  GI50: 1720 nM
  TGI: 3.63 µM
[19]
  GI50: 1820 nM
  TGI: 3.72 µM
[20]
  GI50: 3.84 µM
  TGI: > 100 µM
[21]
  GI50: 2030 nM
  TGI: 4.71 µM
[22]
  GI50: 1820 nM
  TGI: 3.4 µM
[23]
  GI50: 2340 nM
  TGI: 6.04 µM
[24]
  GI50: 1670 nM
  TGI: 3.12 µM
[25]
  GI50: 3.01 µM
  TGI: > 100 µM
[26]
  GI50: 1820 nM
  TGI: 3.27 µM
[27]
  GI50: 2030 nM
  TGI: 5.07 µM
[28]
  GI50: 1800 nM
  TGI: 3.86 µM
[29]
  GI50: 1410 nM
  TGI: 3.24 µM
[30]
  GI50: 17.2 µM
  TGI: 40 µM
[31]
  GI50: 1730 nM
  TGI: 3.17 µM
[32]
  GI50: 2320 nM
  TGI: 5.61 µM
[33]
  GI50: 1750 nM
  TGI: 3.28 µM

## CC(C)[C@@H]1NC(=O)[C@]2(C)CSC(=N2)c2csc(n2)CNC(=O)C[C@@H](/C=C/CCS)OC1=O
[1]
  GI50: 206 nM
  TGI: 4.43 µM

## O=C1OCC2=C1C(c1cccc([N+](=O)[O-])c1)c1cc3c(cc1N2CCO)CCC3 (stereo not given)
[1]
  GI50: 147 nM
  TGI: 8.88 µM

## Cc1cc(N2CCOCC2)nc(N(CCNc2ccnc3cc(Cl)ccc23)Cc2ccco2)n1
[1]
  GI50: 2090 nM
  TGI: 6.41 µM

## O=C(/C=C/c1ccccc1O)c1ccccc1
[1]
  GI50: 6060 nM
  TGI: 19.2 µM

## O=C(/C=C/c1ccccc1Cl)c1ccc(O)cc1
[1]
  GI50: 2770 nM
  TGI: 13 µM

## CCc1ccc(/C(C#N)=C/C=C/c2ccccc2)cc1
[1]
  GI50: 838 nM
  TGI: 9.87 µM

## C[C@H]1O[C@@H](O[C@H]2[C@@H](O)C[C@H](O[C@H]3[C@@H](O)C[C@H](O[C@H]4CC[C@]5(C)C6C[C@@H](O)[C@]7(C)[C@@H](C8=CC(=O)OC8)CC[C@]7(O)C6CC[C@@H]5C4)O[C@@H]3C)O[C@@H]2C)C[C@H](O)[C@@H]1O (stereo not given in full)
[1]
  GI50: 148 nM
  TGI: 0.465 µM

## NC(=O)c1ncn(C2OC(CO)C(O)C2O)n1 (stereo not given)
[1]
  GI50: 69700 nM
  TGI: > 100 µM

## CC1=C(CN(O)C(N)=O)C2=C(C)C3(CC3)[C@@](C)(O)C(=O)C2=C1
[1]
  GI50: 141 nM
  TGI: 0.347 µM

## CCN1CCN(CCNc2nccc(-c3c(-c4cccc(O)c4)nc4sccn34)n2)S1(=O)=O
[1]
  GI50: 9040 nM and 12500 nM
  TGI: 32.5 µM and 36.6 µM

## CCNC(=O)Nc1ccc(-c2nc3c(c(N4CCOC[C@@H]4C)n2)CCN(C2COC2)C3)cc1
[1]
  GI50: 135 nM and 125 nM
  TGI: 1.72 µM and 1.38 µM

## COC(=O)c1c2c(c[n+]([O-])c1C)C(=O)C(NCc1ccccc1)=CC2=O
[1]
  GI50: 232 nM
  TGI: 0.672 µM

## CCOc1ccc(/C=N/Nc2cc(C)nc3ccc(Cl)cc23)cc1
[1]
  GI50: 1730 nM
  TGI: 3.27 µM

## CNC(=O)c1cc(Oc2ccc3nc(NC(=O)c4cc(C(F)(F)F)cc(C(F)(F)F)c4)sc3c2)ccn1
[1]
  GI50: 3180 nM
  TGI: 14.2 µM

## CCCCN(CCCC)c1cc(C(=O)CCCCCN)c2ccccc2n1
[1]
  GI50: 1430 nM
  TGI: 3.05 µM

## COc1c(Nc2ncc(Cl)c(N[C@@H]3[C@H]4C=CC(C4)[C@@H]3C(N)=O)n2)ccc2c1CC[C@@H](N1CCOCC1)CC2
[1]
  GI50: 2200 nM
  TGI: 8.13 µM

## O=C(Nc1cccc(-n2cc(-c3ccncc3)c(-c3cc(O)cc(Cl)c3)n2)c1)Nc1ccc(Cl)c(Cl)c1
[1]
  GI50: 1710 nM
  TGI: 7.09 µM

## Cn1c(=O)c(Sc2ccccc2F)cc2cnc(NC3CCOCC3)nc21
[1]
  GI50: > 25000 nM
  TGI: > 25 µM

## O=[N+]([O-])c1ccc(Oc2cccnc2)c([N+](=O)[O-])c1
[1]
  GI50: 3060 nM
  TGI: 13.8 µM

## CCCCCCCCCCCCCCCCCC(=O)[O][Sn]([CH2]CCC)([CH2]CCC)[CH2]CCC
[1]
  GI50: 83.5 nM
  TGI: 0.214 µM

## COc1ccc(Nc2nc(NCc3ccccc3)c3ccccc3n2)cc1
[1]
  GI50: 1610 nM
  TGI: 3.37 µM

## COc1ccc(S(=O)(=O)Nc2cc(/C=C\c3cc(OC)c(OC)c(OC)c3)cc(OC)c2OC)cc1OC
[1]
  GI50: 269 nM
  TGI: 1.29 µM

## COc1cc(-c2nn(C)nc2-c2cc3ccccc3s2)cc(OC)c1OC
[1]
  GI50: 82.8 nM
  TGI: > 100 µM

## Clc1cccc(Cn2cc(Cc3cn(Cc4cccc(Cl)c4)c4ccccc34)c3ccccc32)c1
[1]
  GI50: 17000 nM
  TGI: 37.3 µM

## Clc1ccc(N/N=C/c2ccccn2)nc1
[1]
  GI50: 260 nM
  TGI: 1.51 µM

## N#Cc1cc(-c2ccccc2)[nH]c1-c1nccc2ccccc12
[1]
  GI50: 3330 nM
  TGI: 44.9 µM

## O=C(NNc1nc2cc(F)ccc2n2cccc12)c1ccncn1
[1]
  GI50: 293 nM
  TGI: 1.65 µM

## Cc1nc(NC(=O)COc2cccc(/C=C3\COc4ccccc4C3=O)c2)sc1C
[1]
  GI50: 1760 nM
  TGI: 3.84 µM

## NCC(=O)Nc1ccc(-n2nc(C(F)(F)F)cc2-c2ccc3c(ccc4ccccc43)c2)cc1
[1]
  GI50: 1560 nM
  TGI: 3.02 µM
